This note sets out measurements from PMC6050298, “Highly active enzymes by automated combinatorial backbone assembly and sequence design” (Nature Communications, 2018).

Assay [1] has as its target T1, GH10 from S. lividans (PDB ID 1E0V) (Streptomyces lividans, UniProt P26514).
T1 construct: gene xlnA; synthetic codon-optimised gene, N-terminal His6-MBP fusion kept in assay, E. coli BL21 DE3; probably catalytic domain as in 1E0V
The experiment in a line: 4-nitrophenol release, […] nm. The assay is classed as biochemical. The following applies: 37 °C, 50 mM Tris pH 6.5, 150 mM NaCl; MBP fusion.

For the next assay, the system named is T2, xyl3.2.
T2 construct: computational design (112 mutations to nearest natural protein), N-terminal His6-MBP fusion kept
The experiment in a line: 4-nitrophenol release, […] nm, Michaelis-Menten fit. The assay is classed as biochemical, synthetic construct. To be noted: 37 °C, 50 mM Tris pH 6.5, 150 mM NaCl; MBP fusion.

In another assay the test system is T3, pll2.4.
T3 construct: computational design (60 mutations to nearest natural protein), N-terminal His6-MBP fusion kept
The assay is classed as biochemical, synthetic construct.

Another assay concerns T4, pll4.1.
T4 construct: computational design (85 mutations to nearest natural protein), N-terminal His6-MBP fusion kept
The assay is classed as biochemical, synthetic construct.

Another assay concerns T5, pll2.2.
T5 construct: computational design (54 mutations to nearest natural protein), N-terminal His6-MBP fusion kept
The assay is classed as biochemical, synthetic construct.

T1 sequence (P26514 42-354): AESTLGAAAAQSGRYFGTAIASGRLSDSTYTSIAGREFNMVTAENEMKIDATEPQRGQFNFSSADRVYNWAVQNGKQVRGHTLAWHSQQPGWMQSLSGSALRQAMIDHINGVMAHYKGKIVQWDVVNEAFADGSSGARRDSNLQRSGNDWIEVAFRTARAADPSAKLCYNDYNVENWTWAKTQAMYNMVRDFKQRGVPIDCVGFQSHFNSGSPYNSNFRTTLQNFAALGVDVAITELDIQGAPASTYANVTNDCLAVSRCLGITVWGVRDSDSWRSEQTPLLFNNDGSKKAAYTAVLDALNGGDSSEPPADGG

For orientation: Km means the concentration of substrate that gives half-maximal velocity. On to `O=[N+]([O-])c1ccc(O[C@@H]2OC[C@@H](O[C@@H]3OC[C@@H](O)[C@H](O)[C@H]3O)[C@H](O)[C@H]2O)cc1` [4-nitrophenyl β-xylobioside], for which the kcat/KM entry in assay [1] is given as “Catalytic efficiency of GH10 designs with OPNPX2 compared to natural GH10 enzymes”. The Michaelis constant (Km) in the assay on xyl3.2 was found to be 160 ± 20 µM.

Turning to `CCCCSC1CCC(=O)O1` (centres unmarked) [5-thiobutyl butyrolactone], the Km with pll2.4 is 82 µM; in the assay on pll4.1, 350 µM; with pll2.2 it was 180 µM.
